“Also recorded” adds a separate entry of the source.
Tests used:
[1] = tested on: R-type Ca^2+ channel; experiment: Ca2+ channel blockers tested on the R-type channel (data not shown); type: cell-based
[2] = tested on: writhing response in mice; experiment: Writhing response in mice (acetic acid, acetylcholine, kaolin); type: in vivo; details: i.p., mice; for ID50 ACETYLCHOLINE: acetylcholine-induced writhes; for ID50 KAOLIN: kaolin-induced writhes
Excerpt: The antinociceptive actions of compound MV 8612 and MV 8608 were investigated in different models of nociception in mice as reported previously (Vaz et al., 1996, J. Pharmacol. Exp. Ther. 278:304–312).

[3] = tested on: tail-flick; experiment: Tail-flick in mice; type: in vivo; details: i.p.
[4] = tested on: vasoconstriction, hypotension and airways hypereactivity induced by PAF, ET-1 and organ transplantation; experiment: In vivo tests in rats, rabbits and guinea pigs (summary); details: rabbits, guinea pigs
[5] = tested on: MG63 and FAOS-2; experiment: Spontaneous proliferation of human osteoblast cancer lines; type: cell-based; details: 10^−8M
[6] = tested on: circulating ET-1, blood flow, hypertension
[7] = tested on: anaesthetized rat; experiment: Anaesthetized rat, blood pressure and PAF hypotension; type: in vivo; details: rat, results not shown
Excerpt: On the other hand, in vivo administered PAF, induced a marked hypotension in the anaesthetized rat and guinea pig.

[8] = tested on: plasma ET-1, attacks of Raynaud's phenomenon; details: patients, La Civita et al. 1996; cited from earlier work
[9] = tested on: L-type Ca^2+ channel; experiment: Isradipine on L-type channel (data not shown); type: cell-based; details: read-out: ED50, block of L-type Ca2+ channel

Compound: COc1ccc([C@@H]2Sc3cc(Cl)ccc3N(CCN(C)C)C(=O)[C@@H]2OC(C)=O)cc1 [Clentiazem]
- block of R-type Ca2+ channel [1]: none were found to block the R-type Ca^2+

Compound: COc1ccc(CCN(C)CCCC(C#N)(c2cc(OC)c(OC)c(OC)c2)C(C)C)cc1OC (stereo not shown) [D600]
- block of R-type Ca2+ channel [1]: none were found to block the R-type Ca^2+

Compound: COc1cccc(CCN(C)CCCC(C#N)(c2ccc(OC)c(OC)c2)C(C)C)c1 (stereo not shown) [D888]
- block of R-type Ca2+ channel [1]: none were found to block the R-type Ca^2+

Compound: COc1ccc([C@@H]2Sc3ccccc3N(CCN(C)C)C(=O)[C@@H]2OC(C)=O)cc1 [Diltiazem]
- block of R-type Ca2+ channel [1]: none were found to block the R-type Ca^2+

Compound: COc1ccc2c(c1)c(CC(=O)O)c(C)n2C(=O)c1ccc(Cl)cc1 [INDOMETHACIN, indomethacin, reference compound]
- ID50 ACETIC ACID ([2]; acetic acid-induced writhes): 1.2 (0.9–1.4) μmol/kg
- ID50 ACETYLCHOLINE [2]: 0.8 (0.5–1.0) μmol/kg
- ID50 KAOLIN [2]: 1.6 (1.4–1.8) μmol/kg

Compound: CN1CC[C@]23c4c5ccc(O)c4O[C@H]2[C@@H](O)C=C[C@H]3[C@H]1C5 [MORPHINE, morphine, reference compound]
- ID50 ACETYLCHOLINE [2]: 1.4 (1.0–1.8) μmol/kg
- ID50 KAOLIN [2]: 1.4 (1.2–1.7) μmol/kg
- ID50 TAIL-FLICK [3]: 6.0(5.7–6.4) μmol/kg

Compound: COc1ccc(CCN(C)CCCC(C#N)(c2ccc(OC)c(OC)c2)C(C)C)cc1OC (stereo not shown) [Verapamil]
- block of R-type Ca2+ channel [1]: none were found to block the R-type Ca^2+

Compound: COC(=O)C1=C(C)NC(C)=C(C(=O)OC(C)C)C1c1cccc2nonc12 (stereo not shown) [isradipine]
- side effects in vivo [4]: exhibited significant side effects
- spontaneous cell proliferation [5]: reduced spontaneous cell proliferation
- hypertension and ET-1 plasma elevation associated with cyclosporin A (Sandimmune) treatment ([6]; allograft transplant, listed as Lomir/Dynacirc): blocked hypertension and ET-1 plasma elevation; also recorded: blocks the elevated circulating endothelin level
- increase of circulating ET-1 and decrease of blood flow ([6]; organ transplants, rabbit, cyclosporin-A treated): restored ET-1 and blood flow levels
- intrinsic hypotensive effect [7]: marked intrinsic hypotensive properties
- elevated plasma ET-1 level and frequency, severity of acute attacks of Raynaud's phenomenon [8]: significantly reduced
- EC50 [9]: ~1000 nM

Compound: COC(=O)C1=C(C)NC(C)=C(C(=O)OC)C1c1ccccc1[N+](=O)[O-] [nifedipine]
- intrinsic hypotensive effect [7]: marked intrinsic hypotensive properties
